The source made the active and inactive calls. The rule behind the calls is not given here.
What was measured:
L02 = assay: Cytotoxicity against human LO2 cells after 48 hrs by MTT assay; assay type: cell-based; details: L02, 48 h
HepG2 [1] = assay: Cytotoxicity against human HepG2 cells after 48 hrs by MTT assay; assay type: functional, cell-based; details: HepG2, 48 h
[2] = Selectivity ratio of IC50 for human LO2 cells to IC50 for human HepG2 cells; assay type: toxicity; details: LO2 cells versus HepG2 cells, read-out: Ratio IC50
[3] = Cytotoxicity against human Huh7S1 cells after 48 hrs by MTT assay; assay type: functional, cell-based
[4] = Selectivity ratio of IC50 for human LO2 cells to IC50 for human Huh7S1 cells; assay type: toxicity; details: LO2 cells versus Huh7S1 cells, read-out: Ratio IC50
HepG2 [5] = assay: Cytotoxicity against human HepG2 cells at 10 uM after 48 hrs by MTT assay; assay type: functional, cell-based

| SMILES | IC50 (L02) | IC50 (HepG2 [1]) | selectivity ratio [2] | IC50 [3] | selectivity ratio [4] | Activity (HepG2 [5]) |
| --- | --- | --- | --- | --- | --- | --- |
| CNC(=O)c1cc(Oc2ccc(NC(=O)Nc3ccc(Cl)c(C(F)(F)F)c3)cc2)ccn1 [SORAFENIB] | 9.1 µM | 5.5 µM | 1.6 | – | – | – |
| CC(C)[C@@H](C)/C=C/[C@@H](C)[C@H]1CC[C@H]2C(=O)[C@@]3(CC[C@]12C)[C@@H](O)C[C@H]1C[C@@H](O)CC[C@@]13C | 22.8 µM | 9.1 µM | 2.5 | 6.2 µM | 3.7 | – |
| CC(C)[C@@H](C)/C=C/[C@@H](C)[C@H]1CCC2=C3C=C[C@H]4C[C@@H](O)CC[C@]4(C)[C@H]3CC[C@@]21C | – | – | – | – | – | inactive |

— ChEMBL document CHEMBL4627372, “Spiroseoflosterol, a Rearranged Ergostane-Steroid from the Fruiting Bodies of Butyriboletus roseoflavus” (J Nat Prod, 2020)
